Where “and” joins values, the source holds several entries; their conditions need not be identical. Equal values may be shown once.
target: T1, USP7 (Homo sapiens, UniProt Q93009); experiment: IC50 determination, fluorogenic Ub-Rho-morpholine activity assay; assay type: biochemical; conditions: after 30 min incubation; purified compound
T1 construct: (1-1102); GST (cleaved yes); made in house
T1 sequence (Q93009 whole entry): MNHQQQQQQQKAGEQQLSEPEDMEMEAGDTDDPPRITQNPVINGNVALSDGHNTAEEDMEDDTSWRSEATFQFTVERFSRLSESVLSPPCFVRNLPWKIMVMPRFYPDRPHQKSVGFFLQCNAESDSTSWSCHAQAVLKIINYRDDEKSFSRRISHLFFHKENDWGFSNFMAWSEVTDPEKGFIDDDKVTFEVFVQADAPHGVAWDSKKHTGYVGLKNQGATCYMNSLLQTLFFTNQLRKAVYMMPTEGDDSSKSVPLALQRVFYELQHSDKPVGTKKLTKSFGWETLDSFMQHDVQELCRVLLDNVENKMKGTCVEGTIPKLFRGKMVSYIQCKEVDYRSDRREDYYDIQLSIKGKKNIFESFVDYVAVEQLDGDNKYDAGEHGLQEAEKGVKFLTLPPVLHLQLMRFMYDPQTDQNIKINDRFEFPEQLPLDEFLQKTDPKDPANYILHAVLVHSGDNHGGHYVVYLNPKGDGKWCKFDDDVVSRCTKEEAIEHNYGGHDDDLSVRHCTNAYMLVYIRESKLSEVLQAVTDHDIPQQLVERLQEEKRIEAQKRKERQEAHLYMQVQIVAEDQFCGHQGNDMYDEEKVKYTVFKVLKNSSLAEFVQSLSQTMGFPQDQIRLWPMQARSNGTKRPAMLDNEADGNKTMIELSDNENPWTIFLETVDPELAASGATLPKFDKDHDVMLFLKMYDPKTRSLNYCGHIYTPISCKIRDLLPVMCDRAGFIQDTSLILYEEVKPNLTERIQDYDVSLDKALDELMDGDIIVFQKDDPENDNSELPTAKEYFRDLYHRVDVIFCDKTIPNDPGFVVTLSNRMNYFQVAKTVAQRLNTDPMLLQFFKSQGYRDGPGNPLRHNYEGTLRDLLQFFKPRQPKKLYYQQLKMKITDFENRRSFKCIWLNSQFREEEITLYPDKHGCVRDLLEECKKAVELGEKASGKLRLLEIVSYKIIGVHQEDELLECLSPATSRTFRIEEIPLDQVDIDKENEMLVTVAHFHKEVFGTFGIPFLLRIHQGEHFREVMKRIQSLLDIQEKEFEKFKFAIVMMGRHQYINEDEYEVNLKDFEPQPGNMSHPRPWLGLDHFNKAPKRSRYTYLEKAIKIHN

SMILES	IC50 [µM]
COc1ccccc1-c1cc(C(=O)N[C@@H]2CCN(C#N)C2)n[nH]1 [Compound 2]	52
N#CN1CC[C@@H](NC(=O)c2ccc(N3CCCC3)cc2F)C1 [Compound 3]	171
N#CN1CC[C@@H](NC(=O)c2ccc(F)c(F)c2)C1 [Compound 4]	210

target: T2, USP30 (Homo sapiens, UniProt Q70CQ3); experiment: biochemical; conditions: not given
T2 sequence (Q70CQ3 57-517): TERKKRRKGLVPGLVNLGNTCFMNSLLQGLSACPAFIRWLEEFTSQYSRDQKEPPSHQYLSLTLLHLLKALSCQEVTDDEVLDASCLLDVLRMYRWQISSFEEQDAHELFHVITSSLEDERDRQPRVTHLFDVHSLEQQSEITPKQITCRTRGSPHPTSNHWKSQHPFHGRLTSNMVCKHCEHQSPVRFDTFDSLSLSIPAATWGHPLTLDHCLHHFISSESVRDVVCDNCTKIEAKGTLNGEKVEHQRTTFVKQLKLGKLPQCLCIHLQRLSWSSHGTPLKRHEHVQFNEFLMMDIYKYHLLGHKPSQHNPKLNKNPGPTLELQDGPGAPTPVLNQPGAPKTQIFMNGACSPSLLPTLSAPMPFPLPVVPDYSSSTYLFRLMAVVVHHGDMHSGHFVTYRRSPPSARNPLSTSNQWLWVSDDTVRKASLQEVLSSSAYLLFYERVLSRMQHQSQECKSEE

SMILES	IC50 [µM]
COc1ccccc1-c1cc(C(=O)N[C@@H]2CCN(C#N)C2)n[nH]1 [Compound 2]	0.059
N#CN1CC[C@@H](NC(=O)c2ccc(N3CCCC3)cc2F)C1 [Compound 3]	2.4
N#CN1CC[C@@H](NC(=O)c2ccc(F)c(F)c2)C1 [Compound 4]	0.89

target: T3, mUSP18 (Mus musculus, UniProt Q9WTV6); experiment: High-throughput screening, ISG15ct-RhoMP, single dose 1.25 µM; assay type: biochemical, murine; conditions: mUSP18 %inhibition; carboxylic acid (CA) building block alone
T3 construct: (46-368); His-tag (N); made in house
T3 sequence (Q9WTV6 46-368): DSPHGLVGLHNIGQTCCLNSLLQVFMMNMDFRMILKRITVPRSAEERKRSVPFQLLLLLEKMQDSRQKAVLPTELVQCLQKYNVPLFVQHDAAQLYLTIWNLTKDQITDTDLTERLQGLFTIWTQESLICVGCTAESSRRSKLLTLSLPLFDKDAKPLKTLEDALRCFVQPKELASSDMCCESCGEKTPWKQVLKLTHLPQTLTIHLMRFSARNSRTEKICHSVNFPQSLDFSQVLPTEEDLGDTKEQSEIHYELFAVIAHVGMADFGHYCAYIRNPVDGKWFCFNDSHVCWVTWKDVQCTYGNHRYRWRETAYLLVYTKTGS

SMILES	%inh CA only
CCN1C(=O)C=CC1=O [NEM]	100.10% and 99.62%

same assay, conditions: mUSP18 %inhibition; carboxylic acid (CA) building block alone; read-out: %inh CA only

SMILES	inhibition at 1.25 µM [%]
Cc1ccccc1-n1cc(C(=O)O)cn1 [CA429]	-5.24
O=C(O)c1cccnc1-n1cccn1 [CA430]	-3.79
CCn1nc(C(C)C)cc1C(=O)N1CCCCC1C(=O)O (stereo not shown) [CA431]	-2.4
Cn1nc(C2CCC2)cc1C(=O)O [CA432]	-1.28
O=C(O)C1CCCN(c2ccc(Cl)nn2)C1 (stereo not shown) [CA438]	-7.25
O=C(O)c1cn[nH]c1C1CC1 [CA439]	-3.97
O=C(O)C1CCCN(c2ncccc2C(F)(F)F)C1 (stereo not shown) [CA440]	-5.84
Cn1cc(-c2nc(C(=O)O)cs2)cn1 [CA442]	-4.05
O=C(O)C1CCN(C(=O)N2CCOCC2)CC1 [CA444]	-6.76
Cc1n[nH]c(C)c1Cc1ccc(C(=O)O)o1 [CA445]	-7.28
CCn1ccc(-c2cc(C(=O)O)no2)n1 [CA447]	9.91

The next lines start with the values.

inhibition at 1.25 µM [%]	SMILES
-0.99	O=C(O)c1cccc(Oc2nccs2)c1 [CA433]
-0.67	CNS(=O)(=O)c1ccc(-c2ccccc2OC(F)(F)F)c(C(=O)O)c1 [CA434]
-5.3	O=C(O)Cc1ccc(OCc2ccccn2)cc1 [CA435]
-3.43	O=C(O)c1cc(S(=O)(=O)Nc2cccc(F)c2)ccc1F [CA436]
-3.12	O=C(O)c1ncn(-c2ccccc2)n1 [CA437]
-3.61	O=C(O)c1nn(-c2ccccc2)c(=O)[nH]c1=O [CA441]
7.6	O=C(O)c1ncsc1Cc1ccccc1 [CA443]
-10.1	CC1=NN(c2cccc(Br)c2)C(=O)C1CC(=O)O (stereo not shown) [CA446]

same assay, conditions: mUSP18 %inhibition; carboxylic acid (CA) with coupling reagents DIC/HOBT

SMILES	%inh CA + DIC/HOBT
CCN1C(=O)C=CC1=O [NEM]	99.98% and 100.30%

same assay, conditions: mUSP18 %inhibition; carboxylic acid (CA) with coupling reagents DIC/HOBT; read-out: %inh CA + DIC/HOBT

SMILES	inhibition at 1.25 µM [%]
Cc1ccccc1-n1cc(C(=O)O)cn1 [CA429]	4.15
O=C(O)c1cccnc1-n1cccn1 [CA430]	17
CCn1nc(C(C)C)cc1C(=O)N1CCCCC1C(=O)O (stereo not shown) [CA431]	-10.1
Cn1nc(C2CCC2)cc1C(=O)O [CA432]	-6.37
O=C(O)C1CCCN(c2ccc(Cl)nn2)C1 (stereo not shown) [CA438]	-2.38
O=C(O)c1cn[nH]c1C1CC1 [CA439]	20.1
O=C(O)C1CCCN(c2ncccc2C(F)(F)F)C1 (stereo not shown) [CA440]	-2.29
Cn1cc(-c2nc(C(=O)O)cs2)cn1 [CA442]	-2.36
O=C(O)C1CCN(C(=O)N2CCOCC2)CC1 [CA444]	-0.57
Cc1n[nH]c(C)c1Cc1ccc(C(=O)O)o1 [CA445]	2.15
CCn1ccc(-c2cc(C(=O)O)no2)n1 [CA447]	-2.33

The remaining lines, values ahead:

inhibition at 1.25 µM [%]	SMILES
-7.69	O=C(O)c1cccc(Oc2nccs2)c1 [CA433]
-3.53	CNS(=O)(=O)c1ccc(-c2ccccc2OC(F)(F)F)c(C(=O)O)c1 [CA434]
-2.79	O=C(O)Cc1ccc(OCc2ccccn2)cc1 [CA435]
-0.67	O=C(O)c1cc(S(=O)(=O)Nc2cccc(F)c2)ccc1F [CA436]
0.58	O=C(O)c1ncn(-c2ccccc2)n1 [CA437]
-0.87	O=C(O)c1nn(-c2ccccc2)c(=O)[nH]c1=O [CA441]
12	O=C(O)c1ncsc1Cc1ccccc1 [CA443]
26.8	CC1=NN(c2cccc(Br)c2)C(=O)C1CC(=O)O (stereo not shown) [CA446]

target: T3, mUSP18; experiment: IC50 determination, fluorogenic ISG15CT-Rho-morpholine activity assay; assay type: biochemical, murine; conditions: after 30 min incubation; purified compound; ISG15CT-Rho-morpholine substrate

SMILES	IC50 [µM]
COc1ccccc1-c1cc(C(=O)N[C@@H]2CCN(C#N)C2)n[nH]1 [Compound 2]	0.029
N#CN1CC[C@@H](NC(=O)c2ccc(N3CCCC3)cc2F)C1 [Compound 3]	5.5
N#CN1CC[C@@H](NC(=O)c2ccc(F)c(F)c2)C1 [Compound 4]	9.8

target: T4, USP32 (Homo sapiens, UniProt Q8NFA0); experiment: IC50 determination, fluorogenic Ub-Rho-morpholine activity assay; assay type: biochemical; conditions: after 30 min incubation; purified compound
T4 construct: (1-1604); His-tag (N); made in house
T4 sequence (Q8NFA0 whole entry): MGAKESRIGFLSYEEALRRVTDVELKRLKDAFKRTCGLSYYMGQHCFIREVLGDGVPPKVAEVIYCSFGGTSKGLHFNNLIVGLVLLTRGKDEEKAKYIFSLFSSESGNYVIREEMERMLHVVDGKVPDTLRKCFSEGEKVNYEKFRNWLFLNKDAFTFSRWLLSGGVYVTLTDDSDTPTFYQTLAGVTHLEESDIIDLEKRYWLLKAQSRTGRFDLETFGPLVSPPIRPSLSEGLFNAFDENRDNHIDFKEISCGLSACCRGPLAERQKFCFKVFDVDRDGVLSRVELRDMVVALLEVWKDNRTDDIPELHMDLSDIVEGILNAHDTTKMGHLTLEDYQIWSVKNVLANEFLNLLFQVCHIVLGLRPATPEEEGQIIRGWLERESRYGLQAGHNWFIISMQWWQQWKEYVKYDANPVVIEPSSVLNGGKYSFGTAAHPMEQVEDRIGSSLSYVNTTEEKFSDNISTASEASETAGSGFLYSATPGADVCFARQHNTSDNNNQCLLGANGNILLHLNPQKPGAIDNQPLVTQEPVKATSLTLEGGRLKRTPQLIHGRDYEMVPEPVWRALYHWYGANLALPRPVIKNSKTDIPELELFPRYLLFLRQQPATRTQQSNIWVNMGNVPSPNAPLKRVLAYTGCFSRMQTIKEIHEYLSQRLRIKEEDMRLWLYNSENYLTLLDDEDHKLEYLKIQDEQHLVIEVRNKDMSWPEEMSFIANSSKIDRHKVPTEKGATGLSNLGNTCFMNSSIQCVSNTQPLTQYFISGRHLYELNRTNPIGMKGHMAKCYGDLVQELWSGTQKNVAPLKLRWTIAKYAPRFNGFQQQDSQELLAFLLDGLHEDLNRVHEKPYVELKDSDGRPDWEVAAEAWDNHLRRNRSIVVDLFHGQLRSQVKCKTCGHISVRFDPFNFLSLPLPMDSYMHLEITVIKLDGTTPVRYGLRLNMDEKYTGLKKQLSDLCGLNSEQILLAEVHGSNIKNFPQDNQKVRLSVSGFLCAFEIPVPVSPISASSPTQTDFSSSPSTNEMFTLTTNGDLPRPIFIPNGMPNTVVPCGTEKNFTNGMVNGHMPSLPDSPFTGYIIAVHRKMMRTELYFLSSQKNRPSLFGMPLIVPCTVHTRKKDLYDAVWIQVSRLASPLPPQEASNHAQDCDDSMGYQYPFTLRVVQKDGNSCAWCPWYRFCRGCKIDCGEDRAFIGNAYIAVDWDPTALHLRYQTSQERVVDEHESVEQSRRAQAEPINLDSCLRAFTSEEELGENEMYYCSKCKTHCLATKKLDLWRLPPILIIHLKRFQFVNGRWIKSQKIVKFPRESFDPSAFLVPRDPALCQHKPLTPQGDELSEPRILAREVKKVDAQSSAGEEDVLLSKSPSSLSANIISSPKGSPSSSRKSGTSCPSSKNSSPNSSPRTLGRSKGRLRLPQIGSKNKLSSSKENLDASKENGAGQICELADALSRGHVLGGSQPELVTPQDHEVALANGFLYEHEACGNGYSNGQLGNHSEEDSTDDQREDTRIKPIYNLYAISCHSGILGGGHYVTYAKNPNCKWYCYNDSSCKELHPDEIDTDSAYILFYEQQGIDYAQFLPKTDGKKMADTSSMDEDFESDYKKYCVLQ

SMILES	IC50 [µM]
COc1ccccc1-c1cc(C(=O)N[C@@H]2CCN(C#N)C2)n[nH]1 [Compound 2]	0.072
N#CN1CC[C@@H](NC(=O)c2ccc(N3CCCC3)cc2F)C1 [Compound 3]	59
N#CN1CC[C@@H](NC(=O)c2ccc(F)c(F)c2)C1 [Compound 4]	184

target: USP16 (Homo sapiens, UniProt Q9Y5T5); experiment: biochemical; conditions: not given
Sequence (Q9Y5T5 22-823): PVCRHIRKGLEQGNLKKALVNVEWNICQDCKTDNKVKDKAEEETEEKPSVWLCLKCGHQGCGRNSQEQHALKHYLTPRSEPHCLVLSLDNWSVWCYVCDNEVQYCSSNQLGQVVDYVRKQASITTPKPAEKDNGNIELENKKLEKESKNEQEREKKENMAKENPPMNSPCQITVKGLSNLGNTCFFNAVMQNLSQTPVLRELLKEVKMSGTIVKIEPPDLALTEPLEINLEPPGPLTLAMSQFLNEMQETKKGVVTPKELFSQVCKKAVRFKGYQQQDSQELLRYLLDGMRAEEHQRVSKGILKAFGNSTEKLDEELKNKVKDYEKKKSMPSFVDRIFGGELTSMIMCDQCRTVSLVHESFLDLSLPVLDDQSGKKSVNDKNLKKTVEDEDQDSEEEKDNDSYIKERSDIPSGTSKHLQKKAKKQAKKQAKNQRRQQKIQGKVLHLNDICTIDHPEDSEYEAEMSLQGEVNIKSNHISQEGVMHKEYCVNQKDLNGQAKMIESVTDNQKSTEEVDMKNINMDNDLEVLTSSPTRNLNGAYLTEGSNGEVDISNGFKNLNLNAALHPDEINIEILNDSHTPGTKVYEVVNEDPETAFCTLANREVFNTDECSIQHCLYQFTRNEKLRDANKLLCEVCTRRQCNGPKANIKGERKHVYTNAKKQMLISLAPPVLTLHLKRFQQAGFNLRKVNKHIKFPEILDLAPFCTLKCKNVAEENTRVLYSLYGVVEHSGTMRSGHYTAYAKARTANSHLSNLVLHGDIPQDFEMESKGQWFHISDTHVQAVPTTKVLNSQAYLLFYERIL

SMILES	IC50 [µM]
COc1ccccc1-c1cc(C(=O)N[C@@H]2CCN(C#N)C2)n[nH]1 [Compound 2]	22.6
N#CN1CC[C@@H](NC(=O)c2ccc(N3CCCC3)cc2F)C1 [Compound 3]	> 200
N#CN1CC[C@@H](NC(=O)c2ccc(F)c(F)c2)C1 [Compound 4]	262

target: T5, UCHL3 (Homo sapiens, UniProt P15374); experiment: IC50 determination, fluorogenic Ub-Rho-morpholine activity assay; assay type: biochemical; conditions: after 30 min incubation; purified compound
T5 construct: (1-230); made in house
T5 sequence (P15374 1-230): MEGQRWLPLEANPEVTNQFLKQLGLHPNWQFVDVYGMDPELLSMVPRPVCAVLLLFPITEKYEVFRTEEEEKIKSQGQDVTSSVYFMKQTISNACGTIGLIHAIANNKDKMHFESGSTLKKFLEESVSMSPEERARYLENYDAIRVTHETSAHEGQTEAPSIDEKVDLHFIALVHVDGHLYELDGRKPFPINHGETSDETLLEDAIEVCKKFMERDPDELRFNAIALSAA

SMILES	IC50 [µM]
COc1ccccc1-c1cc(C(=O)N[C@@H]2CCN(C#N)C2)n[nH]1 [Compound 2]	168
N#CN1CC[C@@H](NC(=O)c2ccc(N3CCCC3)cc2F)C1 [Compound 3]	> 200
N#CN1CC[C@@H](NC(=O)c2ccc(F)c(F)c2)C1 [Compound 4]	> 200

target: T6, UCHL1 (Homo sapiens, UniProt P09936); experiment: as above; assay type: biochemical; conditions: after 30 min incubation; purified compound
T6 construct: (1-223); made in house
T6 sequence (P09936 1-223): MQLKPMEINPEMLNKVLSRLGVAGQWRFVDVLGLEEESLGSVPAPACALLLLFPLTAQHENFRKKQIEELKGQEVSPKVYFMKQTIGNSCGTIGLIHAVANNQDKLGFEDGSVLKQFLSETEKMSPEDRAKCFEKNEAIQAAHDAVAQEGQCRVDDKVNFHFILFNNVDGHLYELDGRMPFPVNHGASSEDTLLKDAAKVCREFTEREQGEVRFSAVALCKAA

SMILES	IC50 [µM]
COc1ccccc1-c1cc(C(=O)N[C@@H]2CCN(C#N)C2)n[nH]1 [Compound 2]	110
N#CN1CC[C@@H](NC(=O)c2ccc(N3CCCC3)cc2F)C1 [Compound 3]	> 200
N#CN1CC[C@@H](NC(=O)c2ccc(F)c(F)c2)C1 [Compound 4]	> 200
